The conditions of the data set: Crystal; visual observation.

Each structure is given as a SMILES string. Numbers after ± are expanded uncertainties.

As to `c1ccc2cc3ccccc3cc2c1` [anthracene], the Normal melting temperature came to 215 ± 1 °C.

The record behind these values is the NIST ThermoML archive (doi:10.1021/je900852t).
